Data reported in ChEMBL document CHEMBL4219237, “Design, synthesis, evaluation, and molecular docking of ursolic acid derivatives containing a nitrogen heterocycle as anti-inflammatory agents” (Bioorg Med Chem Lett, 2018).

How the values were obtained:
HCT-116 = experiment: Cytotoxicity against human HCT116 cells assessed as growth inhibition after 24 hrs by MTT assay; assay type: cell-based; settings: HCT-116, 24 h
Mus musculus [1] = experiment: Antiinflammatory activity in mouse assessed as inhibition of para-xylene-induced ear edema at 100 mg/kg, ip administered 30 mins prior to para-xylene challenge measured after 30 mins relative to control; assay type: functional
Mus musculus [2] = experiment: Potency index, ratio of test compound to ibuprofen activity in mouse assessed as inhibition of para-xylene-induced ear edema at 100 mg/kg, ip; assay type: functional
Mus musculus [3] = experiment: Antiinflammatory activity in mouse assessed as inhibition of para-xylene-induced ear edema at 100 mg/kg, po measured at 5 hrs relative to control; assay type: functional
Mus musculus [4] = experiment: Antiinflammatory activity in mouse assessed as inhibition of para-xylene-induced ear edema at 125 mg/kg, po measured at 2 hrs relative to control; assay type: functional
Mus musculus [5] = experiment: Antiinflammatory activity in mouse assessed as inhibition of para-xylene-induced ear edema at 50 mg/kg, po measured at 2 hrs relative to control; assay type: functional
AGS = experiment: Cytotoxicity against human AGS cells assessed as growth inhibition after 24 hrs by MTT assay; assay type: cell-based
Mus musculus [6] = experiment: Antiinflammatory activity in mouse assessed as inhibition of para-xylene-induced ear edema at 100 mg/kg, po measured at 4 hrs relative to control; assay type: functional
Mus musculus [7] = experiment: Antiinflammatory activity in mouse assessed as inhibition of para-xylene-induced ear edema at 100 mg/kg, po measured at 2 hrs relative to control; assay type: functional
L02 = experiment: Cytotoxicity against human L02 cells assessed as growth inhibition after 24 hrs by MTT assay; assay type: cell-based; settings: L02, 24 h
Mus musculus [8] = experiment: Antiinflammatory activity in mouse assessed as inhibition of para-xylene-induced ear edema at 100 mg/kg, po measured at 3 hrs relative to control; assay type: functional
Mus musculus [9] = experiment: Antiinflammatory activity in mouse assessed as inhibition of para-xylene-induced ear edema at 25 mg/kg, po measured at 2 hrs relative to control; assay type: functional
Mus musculus [10] = experiment: Antiinflammatory activity in mouse assessed as inhibition of para-xylene-induced ear edema at 100 mg/kg, po measured at 1 hr relative to control; assay type: functional

C[C@H]1[C@H](C)CC[C@]2(C(=O)OCc3nnc(-c4ccc(Br)cc4)o3)CC[C@]3(C)C(=CC[C@@H]4[C@@]5(C)CC[C@H](O)C(C)(C)[C@@H]5CC[C@]43C)[C@H]12
IC50 (HCT-116): > 100 µM
inhibition in vivo at 100 mg/kg (Mus musculus [1]): 68.9%

C[C@H]1[C@H](C)CC[C@]2(C(=O)OCCCN3CCN(Cc4nnc(-c5ccccc5)o4)CC3)CC[C@]3(C)C(=CC[C@@H]4[C@@]5(C)CC[C@H](O)C(C)(C)[C@@H]5CC[C@]43C)[C@H]12
IC50 (HCT-116): > 100 µM
inhibition in vivo at 100 mg/kg (Mus musculus [1]): 47.8%

C[C@H]1[C@H](C)CC[C@]2(C(=O)OCCn3ncn(-c4ccccc4)c3=O)CC[C@]3(C)C(=CC[C@@H]4[C@@]5(C)CC[C@H](O)C(C)(C)[C@@H]5CC[C@]43C)[C@H]12
IC50 (HCT-116): > 100 µM
inhibition in vivo at 100 mg/kg (Mus musculus [1]): 64.2%

C[C@H]1[C@H](C)CC[C@]2(C(=O)OCc3nnc(-c4ccccc4Cl)o3)CC[C@]3(C)C(=CC[C@@H]4[C@@]5(C)CC[C@H](O)C(C)(C)[C@@H]5CC[C@]43C)[C@H]12
IC50 (HCT-116): > 100 µM
inhibition in vivo at 100 mg/kg (Mus musculus [1]): 38.8%

C[C@H]1[C@H](C)CC[C@]2(C(=O)OCCCN3CCN(Cc4nnc(-c5ccccc5Cl)o4)CC3)CC[C@]3(C)C(=CC[C@@H]4[C@@]5(C)CC[C@H](O)C(C)(C)[C@@H]5CC[C@]43C)[C@H]12
IC50 (HCT-116): > 100 µM
inhibition in vivo at 100 mg/kg (Mus musculus [1]): 32%

C[C@H]1[C@H](C)CC[C@]2(C(=O)OCCCCCn3ncn(-c4ccccc4)c3=O)CC[C@]3(C)C(=CC[C@@H]4[C@@]5(C)CC[C@H](O)C(C)(C)[C@@H]5CC[C@]43C)[C@H]12
IC50 (HCT-116): > 100 µM
Ratio (Mus musculus [2]): 2
inhibition in vivo at 100 mg/kg (Mus musculus [1]): 56.7%

C[C@H]1[C@H](C)CC[C@]2(C(=O)OCc3nnc(-c4ccc(Cl)cc4)o3)CC[C@]3(C)C(=CC[C@@H]4[C@@]5(C)CC[C@H](O)C(C)(C)[C@@H]5CC[C@]43C)[C@H]12
IC50 (HCT-116): > 100 µM

C[C@H]1[C@H](C)CC[C@]2(C(=O)OCCCN3CCN(Cc4nnc(-c5ccc(F)cc5)o4)CC3)CC[C@]3(C)C(=CC[C@@H]4[C@@]5(C)CC[C@H](O)C(C)(C)[C@@H]5CC[C@]43C)[C@H]12
IC50 (HCT-116): > 100 µM
inhibition in vivo at 100 mg/kg (Mus musculus [1]): 58.7%

Cc1ccc(-c2nnc(COC(=O)[C@]34CC[C@@H](C)[C@H](C)[C@H]3C3=CC[C@@H]5[C@@]6(C)CC[C@H](O)C(C)(C)[C@@H]6CC[C@@]5(C)[C@]3(C)CC4)o2)cc1
IC50 (HCT-116): > 100 µM
inhibition in vivo at 100 mg/kg (Mus musculus [1]): 58.2%

C[C@H]1[C@H](C)CC[C@]2(C(=O)OCCN3CCN(Cc4nnc(-c5cccc(Br)c5)o4)CC3)CC[C@]3(C)C(=CC[C@@H]4[C@@]5(C)CC[C@H](O)C(C)(C)[C@@H]5CC[C@]43C)[C@H]12
IC50 (HCT-116): > 100 µM
inhibition in vivo at 100 mg/kg (Mus musculus [1]): 61%

C[C@H]1[C@H](C)CC[C@]2(C(=O)OCCCCn3ncn(-c4ccccc4)c3=O)CC[C@]3(C)C(=CC[C@@H]4[C@@]5(C)CC[C@H](O)C(C)(C)[C@@H]5CC[C@]43C)[C@H]12
IC50 (HCT-116): > 100 µM
Ratio (Mus musculus [2]): 2
inhibition in vivo at 100 mg/kg (Mus musculus [1]): 66.1%

Cc1ccccc1-c1nnc(COC(=O)[C@]23CC[C@@H](C)[C@H](C)[C@H]2C2=CC[C@@H]4[C@@]5(C)CC[C@H](O)C(C)(C)[C@@H]5CC[C@@]4(C)[C@]2(C)CC3)o1
IC50 (HCT-116): > 100 µM
inhibition in vivo at 100 mg/kg (Mus musculus [1]): 57.2%

C[C@H]1[C@H](C)CC[C@]2(C(=O)OCCCn3ncn(-c4ccccc4)c3=O)CC[C@]3(C)C(=CC[C@@H]4[C@@]5(C)CC[C@H](O)C(C)(C)[C@@H]5CC[C@]43C)[C@H]12
IC50 (HCT-116): > 100 µM
inhibition in vivo at 100 mg/kg (Mus musculus [3]): 16.4%
inhibition in vivo at 125 mg/kg (Mus musculus [4]): 50.1%
inhibition in vivo at 50 mg/kg (Mus musculus [5]): 35.2%
IC50 (AGS): > 200 µM
Ratio (Mus musculus [2]): 2
inhibition in vivo at 100 mg/kg (Mus musculus [6]): 20.2%
inhibition in vivo at 100 mg/kg (Mus musculus [7]): 41.2 to 47.9%
IC50 (L02): > 200 µM
inhibition in vivo at 100 mg/kg (Mus musculus [8]): 29.7%
inhibition in vivo at 100 mg/kg (Mus musculus [1]): 69.8%
inhibition in vivo at 25 mg/kg (Mus musculus [9]): 19.7%
inhibition in vivo at 100 mg/kg (Mus musculus [10]): 22.6%

C[C@H]1[C@H](C)CC[C@]2(C(=O)OCc3nnc(-c4ccccc4)o3)CC[C@]3(C)C(=CC[C@@H]4[C@@]5(C)CC[C@H](O)C(C)(C)[C@@H]5CC[C@]43C)[C@H]12
IC50 (HCT-116): > 100 µM
inhibition in vivo at 100 mg/kg (Mus musculus [1]): 62.3%

C[C@H]1[C@H](C)CC[C@]2(C(=O)OCCCN3CCN(Cc4nnc(-c5cccc(Br)c5)o4)CC3)CC[C@]3(C)C(=CC[C@@H]4[C@@]5(C)CC[C@H](O)C(C)(C)[C@@H]5CC[C@]43C)[C@H]12
IC50 (HCT-116): > 100 µM
inhibition in vivo at 100 mg/kg (Mus musculus [1]): 66.5%

C[C@H]1[C@H](C)CC[C@]2(C(=O)OCc3nnc(-c4cccc(Cl)c4)o3)CC[C@]3(C)C(=CC[C@@H]4[C@@]5(C)CC[C@H](O)C(C)(C)[C@@H]5CC[C@]43C)[C@H]12
IC50 (HCT-116): > 100 µM
inhibition in vivo at 100 mg/kg (Mus musculus [1]): 65.4%

C[C@H]1[C@H](C)CC[C@]2(C(=O)OCc3nnc(-c4ccccc4Br)o3)CC[C@]3(C)C(=CC[C@@H]4[C@@]5(C)CC[C@H](O)C(C)(C)[C@@H]5CC[C@]43C)[C@H]12
IC50 (HCT-116): > 100 µM
inhibition in vivo at 100 mg/kg (Mus musculus [1]): 55.3%

C[C@H]1[C@H](C)CC[C@]2(C(=O)OCCN3CCN(Cc4nnc(-c5ccccc5)o4)CC3)CC[C@]3(C)C(=CC[C@@H]4[C@@]5(C)CC[C@H](O)C(C)(C)[C@@H]5CC[C@]43C)[C@H]12
IC50 (HCT-116): > 100 µM
inhibition in vivo at 100 mg/kg (Mus musculus [1]): 59.1%

C[C@H]1[C@H](C)CC[C@]2(C(=O)OCc3nnc(-c4cccc(Br)c4)o3)CC[C@]3(C)C(=CC[C@@H]4[C@@]5(C)CC[C@H](O)C(C)(C)[C@@H]5CC[C@]43C)[C@H]12
IC50 (HCT-116): > 100 µM
inhibition in vivo at 100 mg/kg (Mus musculus [1]): 53.7%

Cc1cccc(-c2nnc(COC(=O)[C@]34CC[C@@H](C)[C@H](C)[C@H]3C3=CC[C@@H]5[C@@]6(C)CC[C@H](O)C(C)(C)[C@@H]6CC[C@@]5(C)[C@]3(C)CC4)o2)c1
IC50 (HCT-116): > 100 µM

CC(C)Cc1ccc(C(C)C(=O)O)cc1 (configuration not stated) [IBUPROFEN]
inhibition in vivo at 100 mg/kg (Mus musculus [1]): 25.2%

COc1ccc2c(c1)c(CC(=O)O)c(C)n2C(=O)c1ccc(Cl)cc1 [INDOMETHACIN]
inhibition in vivo at 100 mg/kg (Mus musculus [3]): 10.3%
inhibition in vivo at 125 mg/kg (Mus musculus [4]): 38.7%
inhibition in vivo at 50 mg/kg (Mus musculus [5]): 22.8%
inhibition in vivo at 100 mg/kg (Mus musculus [6]): 15.6%
inhibition in vivo at 100 mg/kg (Mus musculus [7]): 30.9 to 33.3%
inhibition in vivo at 100 mg/kg (Mus musculus [8]): 18.6%
inhibition in vivo at 100 mg/kg (Mus musculus [1]): 26.8%
inhibition in vivo at 25 mg/kg (Mus musculus [9]): 4.85%
inhibition in vivo at 100 mg/kg (Mus musculus [10]): 12%

C[C@H]1[C@H](C)CC[C@]2(C(=O)O)CC[C@]3(C)C(=CC[C@@H]4[C@@]5(C)CC[C@H](O)C(C)(C)[C@@H]5CC[C@]43C)[C@H]12 [URSOLIC ACID]
inhibition in vivo at 100 mg/kg (Mus musculus [1]): 57.7%
